Experimental data reported in publication PMC6332173, “Diterpenoids from Saliva plebeia R. Br. and Their Antioxidant and Anti-Inflammatory Activities” (Molecules, 2015).

Columns and labels:
[1] = test system: NO production in LPS-stimulated RAW 264.7 macrophages; test: NO production in LPS-stimulated RAW 264.7 macrophages (Griess reaction); assay type: cell-based, murine; settings: Mus musculus, RAW264.7; for inhibition at 3 µM / inhibition at 10 µM / inhibition at 30 µM / inhibition at 100 µM: LPS 1 μg/mL, 24 h, mean ± SD, n=3, read-out: NO Inhibition Rate (%); for IC50: LPS-induced RAW 264.7 macrophages, read-out: IC50 of NO production inhibition
[2] = test system: intracellular ROS production in LPS-stimulated RAW 264.7 macrophages; test: Intracellular ROS assay in LPS-stimulated RAW 264.7 macrophages (DCFH-DA); assay type: cell-based, murine; settings: Mus musculus, RAW264.7, LPS 1 μg/mL, 6 h, mean ± SD, n=3, read-out: Intracellular ROS Inhibition Rate (%)
Description: Intracellular ROS assay: Intracellular ROS assay was performed according to the method reported previously. RAW 264.7, a murine macrophage cell line, was obtained from the Pharmacognosy Laboratory of Prof. Mian Zhang, China Pharmaceutical University. Cells were cultured in DMEM containing 10% fetal bovine serum, 100 U/mL penicillin and 100 U/mL streptomycin at 37 °C in a humidified atmosphere containing 5% CO2 and 95% air. The cells (1 × 10^5 cells/well) were pre-incubated in the 96-well plate for 12 h. Then, cells were cultured in normal medium as normal group, or 1 μg/mL LPS as control group, or 1 μg/mL LPS plus different concentration of compounds as test group. After the cells of each group were treated for 6 h, the medium was removed, and the cells were incubated with 50 μL 2,7-Dichlorofluorescein diacetate (DCFH-DA) (10 μM) for 20 min at 37 °C. After that, the cells were washed with PBS carefully three times to remove free DCFH-DA. The absorbance was determined at 525 nm using Thermo Scientific Varioskan Flash. Apocynin was used as the positive control. The inhibitory rate (%) was calculated according to the equation: Inhibition rate (%) = [1 − (B1 − B0)/(B2 − B0)] × 100 (2) B1 refers to the absorbance of […], B0 refers to the absorbance of normal group.

RAW 264.7 macrophages = assay type: cell-based, murine; settings: mouse, 24 h, 100 µM
Description: The MTT assay was used to evaluate the cell viability, as previously reported. RAW 264.7 macrophages were seeded at a density of 1 × 10^5 cells /mL in 96-well plates and cultured for 24 h with the test compound (100 µM) at 37 °C in a 5% CO2 incubator. Subsequently, 20 μL of MTT solution (5 mg/mL) was added to each well and incubated for 4 h at 37 °C and the resulted crystals were dissolved in DMSO. The optical density was measured at 490 nm using Thermo Scientific Varioskan Flash.

[3] = DPPH radical scavenging assay; settings: for DPPH radical scavenging rate: 30 min, absorbance 517 nm
Description: DPPH radical assay: DPPH radical scavenging assay was performed according to previous protocol with modifications. DPPH was dissolved in ethanol at the concentration of 200 µM. One hundred microliters of compounds (5, 10, 20, 30, 50 µM) were added to the 96-well plates, and evaded the light preservation for 30 min after addition 100 µL DPPH. Then the absorbance was measured at 517 nm using Thermo Scientific Varioskan Flash. Vitamin C was used as the positive control. The inhibitory effect was expressed as scavenging rate of alleviation and was calculated as follows: Scavenging rate (%) = [1 − (A1 − A2)/A0] × 100 (1) A1 refers to the absorbance with various concentrations of test compounds and DPPH, A2 refers to the absorbance with various concentrations of test compounds and ethanol, A0 refers to the absorbance with distilled water and DPPH.

Compound | inhibition at 3 µM [1] | inhibition at 10 µM [1] | inhibition at 30 µM [1] | inhibition at 100 µM [1] | IC50 [1] | melting point | inhibition at 10 µM [2] | inhibition at 30 µM [2] | inhibition at 100 µM [2] | Cell Viability (% vs. Control) (RAW 264.7 macrophages) | IC50 [3] | DPPH radical scavenging rate ([3]; 5 µM compound) | DPPH radical scavenging rate ([3]; 10 µM compound) | DPPH radical scavenging rate ([3]; 20 µM compound) | DPPH radical scavenging rate ([3]; 30 µM compound) | DPPH radical scavenging rate ([3]; 50 µM compound)
CC(C)C1CC2C(CO)(CC(O)C(O)C2(C)C)c2c(O)cc(O)cc21 [Compound 1, 1,2,3,4,4α,9,10,10α-octahydro-(4α-hydroxyymethyl)-1,1-dimethyl-9-(1-methylethyl)-(2S,3S,4αR,9R,10αS)-2,3,5,7-phenanthrenetertrol] | 18 ± 3.2% | 42.9 ± 2.5% | 68.9 ± 5.2% | 86.6 ± 4.9% | 18 µM | 232 to 233 °C | 24.6 ± 2.4% | 56.1 ± 8.2% | 64.8 ± 5.2% | 97.3 ± 4.2% | 29.6 µM | 16.6 ± 3.3% | 21.0 ± 1.8% | 39.2 ± 4.1% | 53.4 ± 8.2% | 75.4 ± 6.8%
CC(C)c1cc2c(c(O)c1O)[C@@]13CCCC(C)(C)[C@@H]1C[C@@H]2OC3=O [Compound 2, carnosol] | 20.5 ± 2.6% | 32 ± 4.8% | 63.3 ± 5.3% | 103 ± 5.9% | 21.5 µM | – | 29.5 ± 3.1% | 53.2 ± 2% | 80.3 ± 1.3% | 110.5 ± 0.9% | 28.8 µM | 5.9 ± 1.6% | 15.4 ± 2.6% | 29.5 ± 1.9% | 59.3 ± 4.2% | 86.1 ± 3.3%
CC(C)Cc1ccc(C(C)C(=O)O)cc1 (stereo not drawn) [ibuprofen, reference compound] | – | – | 32.3 ± 4.2% | – | – | – | – | – | – | – | – | – | – | – | – | –
CC(C)c1cc(C=O)c2c(c1O)OC(=O)C1C(C)(C)CCC[C@]21C=O (stereo partly drawn) [Compound 4, saficinolide] | 6.3 ± 2.4% | 11.9 ± 5.8% | 15.8 ± 4.4% | 28.7 ± 5.3% | > 100 µM | – | 8.1 ± 3.2% | 16.6 ± 4.4% | 47.1 ± 6.1% | 101.3 ± 5.0% | > 50 µM | 14.5 ± 2.9% | 15.2 ± 6.0% | 15.5 ± 1.3% | 7.0 ± 4.7% | 13.2 ± 1.5%
CC(C)c1cc2c(c(O)c1O)[C@]13CO[C@H]2C[C@H]1C(C)(C)C[C@H](O)C3 [Compound 5, 2,11,12-trihydroxy-7,20-epoxy-8,11,13-abietatriene] | 5.7 ± 3.8% | 4.9 ± 7.3% | 16.4 ± 5.4% | 25.6 ± 4% | > 100 µM | – | 13 ± 3.3% | 51.8 ± 2.2% | 91.3 ± 9.2% | 91.6 ± 2.3% | 20 µM | 9.2 ± 5.8% | 23.8 ± 6.6% | 55.4 ± 2.7% | 72.6 ± 5.7% | 89.6 ± 1.3%
COc1cc(C(C)=O)ccc1O [Apocynin, reference compound] | – | – | – | – | – | – | – | – | 92.9 ± 2.6% | – | – | – | – | – | – | –
O=C1O[C@H]([C@@H](O)CO)C(O)=C1O [Vit. C, Vitamin C, reference compound] | – | – | – | – | – | – | – | – | – | – | 26.5 µM | 6.1 ± 4.4% | 21.6 ± 2.2% | 43.8 ± 2.6% | 57.6 ± 5.4% | 89.1 ± 2.2%
CC(C)c1cc(O)c2c(c1O)[C@@H]1CC3C(C)(C)CCC[C@]23C(=O)O1 (stereo partly drawn) [Compound 3, isocarnosol] | 18.8 ± 3% | 29.9 ± 5% | 59.4 ± 4.7% | 98.1 ± 6.5% | 23.6 µM | – | 13.5 ± 1.1% | 16 ± 1.9% | 22 ± 1.8% | 106.7 ± 1.5% | > 50 µM | 3.4 ± 2.3% | 11.5 ± 2.4% | 24.5 ± 1.2% | 42.6 ± 6.0% | 49.0 ± 1.1%
